Consider 30 compounds from patent US6683055B1, “Low molecular weight inhibitors of complement proteases” (BASF Aktiengesellschaft, priority 1999, dated 2004).

What is called pIC50 is the IC50 on a negative log10 scale, so that one unit is a factor of ten.

pIC50: −log10 of the molar value. Structures can show the parent of a compound that is named as a salt.

Assay [1] has as its target T1, C1s from human plasma, activated, two-chain form (Homo sapiens, UniProt P09871).
T1 construct: from tissue; host or cells: human plasma
T1 sequence (P09871 16-437 partner limits assumed): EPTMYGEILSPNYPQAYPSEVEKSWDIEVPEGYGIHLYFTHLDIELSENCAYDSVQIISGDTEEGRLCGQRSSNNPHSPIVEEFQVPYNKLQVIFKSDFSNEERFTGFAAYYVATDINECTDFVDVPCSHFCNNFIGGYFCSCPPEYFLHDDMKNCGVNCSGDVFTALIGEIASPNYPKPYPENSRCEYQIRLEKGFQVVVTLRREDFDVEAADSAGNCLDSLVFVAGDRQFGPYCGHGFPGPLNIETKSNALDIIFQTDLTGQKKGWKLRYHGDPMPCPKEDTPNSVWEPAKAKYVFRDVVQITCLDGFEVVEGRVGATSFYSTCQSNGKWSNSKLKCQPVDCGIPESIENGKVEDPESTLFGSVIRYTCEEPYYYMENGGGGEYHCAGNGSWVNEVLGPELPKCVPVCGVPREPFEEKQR
T1 sequence (P09871 438-688 limits assumed): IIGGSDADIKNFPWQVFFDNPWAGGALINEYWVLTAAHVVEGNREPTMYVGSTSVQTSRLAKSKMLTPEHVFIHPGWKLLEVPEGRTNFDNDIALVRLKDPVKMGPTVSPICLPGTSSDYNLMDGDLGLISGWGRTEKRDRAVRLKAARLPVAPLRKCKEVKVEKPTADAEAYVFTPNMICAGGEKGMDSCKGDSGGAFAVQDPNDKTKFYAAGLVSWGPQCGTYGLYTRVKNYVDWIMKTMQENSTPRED
Briefly: Color substrate test for C1s inhibition (Example B). Format: biochemical. The following applies: amidolytic C1s activity, substrate Cbz-Gly-Arg-S-Bzl; read-out: C1S IC50 according to Example B. The text has this:
Material and Methods: Color Subrate Test for C1s Inhibition

Assay [2] deals with T2, C1r from human plasma, activated, two-chain form (Homo sapiens, UniProt P00736).
T2 construct: from tissue; host or cells: human plasma
T2 sequence (P00736 18-463 partner limits assumed): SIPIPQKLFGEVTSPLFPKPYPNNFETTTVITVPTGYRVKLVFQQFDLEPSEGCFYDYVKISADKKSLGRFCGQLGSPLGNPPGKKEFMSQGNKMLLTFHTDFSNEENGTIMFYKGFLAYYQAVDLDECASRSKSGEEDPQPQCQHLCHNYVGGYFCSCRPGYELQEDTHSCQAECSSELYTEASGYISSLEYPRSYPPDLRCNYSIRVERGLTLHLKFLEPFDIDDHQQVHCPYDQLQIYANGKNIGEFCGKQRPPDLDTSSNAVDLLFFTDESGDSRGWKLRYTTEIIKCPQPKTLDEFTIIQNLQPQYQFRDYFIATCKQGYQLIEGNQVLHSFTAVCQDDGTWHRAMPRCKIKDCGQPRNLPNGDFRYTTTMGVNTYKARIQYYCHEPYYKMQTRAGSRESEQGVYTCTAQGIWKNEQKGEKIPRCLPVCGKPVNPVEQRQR
T2 sequence (P00736 464-705 limits assumed): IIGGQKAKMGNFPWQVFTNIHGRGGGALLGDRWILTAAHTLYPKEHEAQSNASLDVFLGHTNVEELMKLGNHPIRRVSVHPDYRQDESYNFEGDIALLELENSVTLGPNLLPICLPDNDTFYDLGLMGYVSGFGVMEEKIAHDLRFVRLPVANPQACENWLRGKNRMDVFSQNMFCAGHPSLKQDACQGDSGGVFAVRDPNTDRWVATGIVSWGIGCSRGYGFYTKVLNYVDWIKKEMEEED
Briefly: Color substrate test for C1r inhibition (Example A). In kind it is biochemical. As to conditions: amidolytic C1r activity, substrate Cbz-Gly-Arg-S-Bzl; read-out: C1R IC50 according to Example A. The text has this: Color Substrate Test for C1r Inhibition

Take “2-C6H10—CH2-Gly-Pro-NH-p-amb.2HCl [Example 7]”: the pIC50 is 5.40 in assay [1] and under 4.00 in assay [2].

Take `N=C(N)c1ccc(CNC(=O)[C@@H]2CCCN2C(=O)[C@H](NCCCCC(=O)O)C2CCCCC2)cn1` [Example 26, HOOC—(CH2 )4-(D)Chg-Pro-NH-3-(6-am)-pico.CH3COOH]: the pIC50 is 5.70 in assay [1] and under 4.00 in assay [2].

For `N=C(N)c1ccc(CNC(=O)[C@@H]2C=CCN2C(=O)[C@@H](CC2CCCCC2)NS(=O)(=O)Cc2ccccc2)cn1` [Example 15, C6H5—CH2—SO2-(D)Cha-Pyr-NH-3-(6-am)-pico.CH3COOH], the results for the pIC50 in assay [1] and in assay [2] were 5.70 and 5.52, respectively.

On to `N=C(N)c1csc(CNC(=O)[C@@H]2CCN2C(=O)[C@H](NCC(=O)O)C2CCCCC2)c1` [Example 39, HOOC—CH2-(D)Chg-Aze-NH—CH2-5-(3-am)-thioph], for which the pIC50 in assay [1] was 5.00; in assay [2], 5.70.

As to `N=C(N)c1coc(CNC(=O)[C@@H]2C=CCN2C(=O)[C@@H](CC2CCCCC2)NCC(=O)O)c1` [Example 44, HOOC—CH2-(D)Cha-Pyr-NH—CH2-5-(3-am)-fur.CH3COOH], the figures for the pIC50 in assay [1] and in assay [2] were 5.52 and 4.40, respectively.

For `N=C(N)c1ccc(CNC(=O)[C@@H]2CSCN2C(=O)[C@@H](CC2CCCCC2)NCC(=O)O)s1` [Example 33, HOOC—CH2-(D)Cha-Thz-4-CO—NH—CH2-5-(2-am)-thioph.2HCl], the pIC50 in assay [1] and in assay [2] was 4.40 each time.

Turning to `CC(C)(C)OC(=O)Nc1ccc(CS(=O)(=O)N[C@H](CC2CCCCC2)C(=O)N2CC=C[C@H]2C(=O)NCc2ccc(C(=N)N)nc2)cc1` [Example 20, Boc-NH-p-C6H4CH2—SO2-(D)Cha-Pyr-NH-3-(6-am)-pico-CH3COOH], the pIC50 is 5.70 in assay [1] and 6.22 in assay [2].

Consider `N=C(N)c1csc(CNC(=O)C2SCCN2C(=O)[C@@H](CC2CCCCC2)NCC(=O)O)c1` (stereo partly drawn) [Example 46, HOOC—CH2-(D)Cha-Thz-2-CO—NH—CH2-5-(3-am)-thioph.2HCl], for which the values for the pIC50 in assay [1] and in assay [2] were 4.70 and 4.40, respectively.

Take `N=C(N)c1ccc(CNC(=O)[C@@H]2CCCN2C(=O)[C@H](NCCCCCC(=O)O)C2CCCCC2)cn1` [Example 24, HOOC—(CH2)5-(D)Chg-Pro-NH-3-(6-am)-pico.CH3COOH]: the figures for the pIC50 in assay [1] and in assay [2] were 6.10 and under 4.00, respectively.

Regarding `CS(=O)(=O)N[C@H](CC1CCCCC1)C(=O)N1CC=C[C@H]1C(=O)NCc1ccc(C(=N)N)cc1` [Example 4, CH3—SO2-(D)Cha-Pyr-NH-p-amb.CH3COOH], the pIC50 in assay [1] was 5.52; in assay [2], 4.52.

On to `CC(C)(C)OC(=O)Nc1ccc(CS(=O)(=O)N[C@@H](C(=O)N2CC=C[C@H]2C(=O)NCc2ccc(C(=N)N)nc2)C2CCCCC2)cc1` [Example 22, Boc-NH-p-C6H4—CH2—SO2-(D)Chg-Pyr-NH-3-(6-am)-pico.CH3COOH], for which the figures for the pIC50 in assay [1] and in assay [2] were 6.22 and 6.05, respectively.

Take `N=C(N)c1coc(CNC(=O)[C@@H]2CCCN2C(=O)[C@@H](CC2CCCCC2)NCC(=O)O)c1` [Example 34, HOOC—CH2-(D)Cha-Pro-NH—CH2-5-(3-am)-fur.CH3COOH]: the figures for the pIC50 in assay [1] and in assay [2] were 4.70 and 4.15, respectively.

Take `N=C(N)c1csc(CNC(=O)[C@@H]2CC3CCCCC3N2C(=O)[C@H](NCC(=O)O)C2CCCCC2)c1` (stereo partly drawn) [Example 48, HOOC—CH2-(D)Chg-(L)Ohi-2-CO—NH—CH2-5-(3-am)-thioph.HCl]: the pIC50 in assay [1] was 4.52; in assay [2], 4.30.

In the case of `N=C(N)c1csc(CNC(=O)[C@@H]2CC3CCCCC3N2C(=O)[C@@H](CC2CCCCC2)NCC(=O)O)c1` (stereo partly drawn) [Example 47, HOOC—CH2-(D)Cha-(L)Ohi-2-CO—NH—CH2-5-(3-am)-thioph.HCl], the pIC50 was 4.30 in assay [1] and 5.00 in assay [2].

On to `N=C(N)c1ccc(CNC(=O)[C@@H]2C=CCN2C(=O)[C@H](NCC(=O)O)C2CCCCC2)cn1` [Example 18, HOOC—CH2-(D)Chg-Pyr-NH-3-(6-am)-pico.CH3COOH], for which the negative-log IC50 (pIC50) is 5.15 in assay [1] and 5.00 in assay [2].

Turning to `COC(=O)CS(=O)(=O)N[C@@H](C(=O)N1CCC[C@H]1C(=O)NCc1ccc(C(=N)N)nc1)C1CCCCC1` [Example 17, CH3OOC—CH2—SO2-(D)Chg-Pro-NH-3-(6-am)-pico.CH3COOH], the pIC50 in assay [1] was 5.40; in assay [2] it was 4.40.

Turning to `N=C(N)c1ccc(CNC(=O)[C@@H]2C=CCN2C(=O)C(CCC2CCCCC2)NCC(=O)O)cn1` (stereo partly drawn) [Example 19, HOOC—CH2-HCha-Pyr-NH-3-(6-am)-pico], the pIC50 in assay [1] and in assay [2] was 4.52 throughout.

Consider `CS(=O)(=O)N[C@@H](C(=O)N1CCC[C@H]1C(=O)NCc1ccc(C(=N)N)nc1)C1CCCCC1` [Example 14, CH3—SO2-(D)Chg-Pro-NH-3-(6-am)-pico.CH3COOH], for which the figures for the pIC50 in assay [1] and in assay [2] were 4.70 and under 4.00, respectively.

Regarding `N=C(N)c1ccc(CNC(=O)[C@@H]2CCCN2C(=O)[C@H]2Cc3ccccc3CN2)cc1` [Example 11, H-(D)3-Tic-Pro-NH-p-amb.2CH3COOH], the pIC50 in assay [1] is 4.52; in assay [2] it was under 4.00.

Consider `N=C(N)c1csc(CNC(=O)[C@@H]2C=CCN2C(=O)C(NCC(=O)O)C2CCCC2)c1` (stereo partly drawn) [Example 42, HOOC—CH2-Cpg-Pyr-NH—CH2-5-(3-am)-thioph.CH3COOH], for which the negative logarithm of the IC50 (pIC50) in assay [1] is 6.00; in assay [2], 6.15.

Consider `N=C(N)c1ccc(CNC(=O)[C@@H]2C=CCN2C(=O)[C@@H](CC2CCCCC2)NCC(=O)O)s1` [Example 32, HOOC—CH2-(D)Cha-Pyr-NH—CH2-5-(2-am)-thioph.CH3COOH], for which the pIC50 in assay [1] was 4.52; in assay [2], 5.00.

`CS(=O)(=O)N[C@H](CC1CCCCC1)C(=O)N1CC=C[C@H]1C(=O)NCc1ccc(C(=N)N)nc1` [Example 13, CH3—SO2-(D)Cha-Pyr-NH-3-(6-am)-pico.CH3COOH]: the results for the pIC50 in assay [1] and in assay [2] were 5.00 and 4.52, respectively.

As to `N=C(N)Nc1ncc(CNC(=O)[C@@H]2C=CCN2C(=O)[C@@H](CC2CCCCC2)NCC(=O)O)s1` [Example 54, N-(Hydroxycarbonyl-methylene)-(D)cyclohexylalanyl-3,4-dehydroprolyl-[5-(2-guanidino)thiazolylmethyl]amide Bishydrochloride], the negative logarithm of the IC50 (pIC50) in assay [1] is 5.10.

Consider “HOOC—CH2-(D,L)Cpg-Pyr-NH—CH2-5-(3-Me-3-am)-thioph.CH3COOH [Example 52]”, for which the pIC50 is 5.40 in assay [1] and 5.00 in assay [2].

Take `N=C(N)c1ccc(CNC(=O)[C@@H]2C=CCN2C(=O)[C@@H](CC2CCCCC2)NS(=O)(=O)Cc2ccc(N)cc2)cn1` [Example 21, H2N-p-C6H4CH2—SO2-(D)Cha-Pyr-NH-3-(6-am)-pico-HCl]: the pIC50 is 6.00 in assay [1] and 5.40 in assay [2].

`N=C(N)c1ccc(CNC(=O)[C@@H]2C=CCN2C(=O)[C@H](NS(=O)(=O)Cc2ccc(N)cc2)C2CCCCC2)cn1` [Example 23, H2N-p-C6H4—CH2—SO2-(D)Chg-Pyr-NH-CH2-3-(6-am)-pico.HCl]: the figures for the pIC50 in assay [1] and in assay [2] were 6.10 and 6.30, respectively.

With `N=C(N)c1ccc(CNC(=O)[C@@H]2CCCN2C(=O)CNC(=O)CCCc2ccccc2)cc1` [Example 9, C6H5—(CH2)3—CO-Gly-Pro-NH-p-amb.HI], the negative-log IC50 (pIC50) is 4.70 in assay [1] and under 4.00 in assay [2].

Consider `N=C(N)c1ccc(CNC(=O)[C@@H]2CCCN2C(=O)[C@@H](Cc2ccccc2)NCCCS(=O)(=O)O)cc1` [Example 12, HO3S—(CH2)3-(D)Phe-Pro-NH-p-amb.HCl], for which the pIC50 in assay [1] was 4.52; in assay [2] it was under 4.00.

As for `CC(C)[C@@H](N)C(=O)N1CCC[C@H]1C(=O)NCc1ccc(C(=N)N)cc1` [Example 5, H-(D)Val-Pro-NH-p-amb.2HCl], the negative logarithm of the IC50 (pIC50) in assay [1] was 5.00.

Turning to `CC(C)(C)OC(=O)N[C@H](CC(=O)OCc1ccccc1)C(=O)N1CCC[C@H]1C(=O)NCc1ccc(C(=N)N)cc1` [Example 6, Boc-(D)Asp(OBn)-Pro-NH-p-amb.CH3COOH], the pIC50 in assay [1] was 5.22.
